# Test results reported in paper PMC12102759 (Protein Science : A Publication of the Protein Society, 2025).
# Test system: G3BP1 NFT2
# Assay type: binding, human
# Conditions: library DMS-BM; bait G3BP1 NFT2; prey CAPRIN1; AQMQGPYNFIQDSM(averaged): mean of the two overlapping peptides over the shared positions
row,Substance,"DMS position-specific score (PSSM value) per amino-acid substitution, averaged"
1,AQMQGPYNFIQDSM(averaged) F9H (AQMQGPYNHIQDSM),0
2,AQMQGPYNFIQDSM(averaged) N8T (AQMQGPYTFIQDSM),0.1728
3,AQMQGPYNFIQDSM(averaged) G5Q (AQMQQPYNFIQDSM),0.004656
4,AQMQGPYNFIQDSM(averaged) I10M (AQMQGPYNFMQDSM),0.03721
5,AQMQGPYNFIQDSM(averaged) N8H (AQMQGPYHFIQDSM),0.02395
6,AQMQGPYNFIQDSM(averaged) Q11H (AQMQGPYNFIHDSM),0.008689
7,AQMQGPYNFIQDSM(averaged) Q4F (AQMFGPYNFIQDSM),0.01567
8,AQMQGPYNFIQDSM(averaged) M3D (AQDQGPYNFIQDSM),0.0976
9,AQMQGPYNFIQDSM(averaged) P6K (AQMQGKYNFIQDSM),0.01016
10,AQMQGPYNFIQDSM(averaged) F9S (AQMQGPYNSIQDSM),0
11,AQMQGPYNFIQDSM(averaged) M3Y (AQYQGPYNFIQDSM),0.01355
12,AQMQGPYNFIQDSM(averaged) F9G (AQMQGPYNGIQDSM),0.0001993
13,AQMQGPYNFIQDSM(averaged) S13E (AQMQGPYNFIQDEM),0.01271
14,AQMQGPYNFIQDSM(averaged) P6V (AQMQGVYNFIQDSM),0.006564
15,AQMQGPYNFIQDSM(averaged) I10H (AQMQGPYNFHQDSM),0.003149
16,AQMQGPYNFIQDSM(averaged) Q2Q,0.0522
17,AQMQGPYNFIQDSM(averaged) Q11Y (AQMQGPYNFIYDSM),0.0642
18,AQMQGPYNFIQDSM(averaged) N8P (AQMQGPYPFIQDSM),0.002565
19,AQMQGPYNFIQDSM(averaged) Y7P (AQMQGPPNFIQDSM),0.002813
20,AQMQGPYNFIQDSM(averaged) I10D (AQMQGPYNFDQDSM),0
21,AQMQGPYNFIQDSM(averaged) M14E (AQMQGPYNFIQDSE),0.2115
22,AQMQGPYNFIQDSM(averaged) Q11D (AQMQGPYNFIDDSM),0
23,AQMQGPYNFIQDSM(averaged) D12E (AQMQGPYNFIQESM),0.04092
24,AQMQGPYNFIQDSM(averaged) Q4W (AQMWGPYNFIQDSM),0.01813
25,AQMQGPYNFIQDSM(averaged) G5A (AQMQAPYNFIQDSM),0.003112
26,AQMQGPYNFIQDSM(averaged) Q2G (AGMQGPYNFIQDSM),0.001251
27,AQMQGPYNFIQDSM(averaged) D12I (AQMQGPYNFIQISM),0.0003022

row,Substance,"DMS position-specific score (PSSM value) per amino-acid substitution, averaged"
1,AQMQGPYNFIQDSM(averaged) P6S (AQMQGSYNFIQDSM),0.00881
2,AQMQGPYNFIQDSM(averaged) A1D (DQMQGPYNFIQDSM),0.01051
3,AQMQGPYNFIQDSM(averaged) M3T (AQTQGPYNFIQDSM),0.05572
4,AQMQGPYNFIQDSM(averaged) Y7S (AQMQGPSNFIQDSM),0.06469
5,AQMQGPYNFIQDSM(averaged) Q11G (AQMQGPYNFIGDSM),0.1489
6,AQMQGPYNFIQDSM(averaged) M3N (AQNQGPYNFIQDSM),0.00226
7,AQMQGPYNFIQDSM(averaged) F9I (AQMQGPYNIIQDSM),0
8,AQMQGPYNFIQDSM(averaged) S13F (AQMQGPYNFIQDFM),0.05713
9,AQMQGPYNFIQDSM(averaged) N8I (AQMQGPYIFIQDSM),0.06952
10,AQMQGPYNFIQDSM(averaged) F9E (AQMQGPYNEIQDSM),0
11,AQMQGPYNFIQDSM(averaged) Q4P (AQMPGPYNFIQDSM),0.003604
12,AQMQGPYNFIQDSM(averaged) Q11A (AQMQGPYNFIADSM),0.001301
13,AQMQGPYNFIQDSM(averaged) I10R (AQMQGPYNFRQDSM),0.001261
14,AQMQGPYNFIQDSM(averaged) S13S,0.5152
15,AQMQGPYNFIQDSM(averaged) Y7E (AQMQGPENFIQDSM),0.0001172
16,AQMQGPYNFIQDSM(averaged) M3E (AQEQGPYNFIQDSM),0.03003
17,AQMQGPYNFIQDSM(averaged) P6T (AQMQGTYNFIQDSM),0.1796
18,AQMQGPYNFIQDSM(averaged) M3L (AQLQGPYNFIQDSM),0.03704
19,AQMQGPYNFIQDSM(averaged) S13R (AQMQGPYNFIQDRM),0.001343
20,AQMQGPYNFIQDSM(averaged) S13Y (AQMQGPYNFIQDYM),0.0135
21,AQMQGPYNFIQDSM(averaged) M14G (AQMQGPYNFIQDSG),0.000626
22,AQMQGPYNFIQDSM(averaged) G5V (AQMQVPYNFIQDSM),0.008337
23,AQMQGPYNFIQDSM(averaged) M14D (AQMQGPYNFIQDSD),0.036
24,AQMQGPYNFIQDSM(averaged) I10E (AQMQGPYNFEQDSM),0.0004486
25,AQMQGPYNFIQDSM(averaged) P6I (AQMQGIYNFIQDSM),0.007006
26,AQMQGPYNFIQDSM(averaged) S13V (AQMQGPYNFIQDVM),0.1094
27,AQMQGPYNFIQDSM(averaged) Q2H (AHMQGPYNFIQDSM),0.02779

row,Substance,"DMS position-specific score (PSSM value) per amino-acid substitution, averaged"
1,AQMQGPYNFIQDSM(averaged) Q4E (AQMEGPYNFIQDSM),0.0003947
2,AQMQGPYNFIQDSM(averaged) I10Y (AQMQGPYNFYQDSM),0.003704
3,AQMQGPYNFIQDSM(averaged) P6F (AQMQGFYNFIQDSM),0.002152
4,AQMQGPYNFIQDSM(averaged) Q4N (AQMNGPYNFIQDSM),0.005313
5,AQMQGPYNFIQDSM(averaged) Q11I (AQMQGPYNFIIDSM),0
6,AQMQGPYNFIQDSM(averaged) Y7K (AQMQGPKNFIQDSM),0
7,AQMQGPYNFIQDSM(averaged) S13D (AQMQGPYNFIQDDM),0.02096
8,AQMQGPYNFIQDSM(averaged) S13N (AQMQGPYNFIQDNM),0.02537
9,AQMQGPYNFIQDSM(averaged) A1N (NQMQGPYNFIQDSM),0.01838
10,AQMQGPYNFIQDSM(averaged) M14S (AQMQGPYNFIQDSS),0.001956
11,AQMQGPYNFIQDSM(averaged) N8V (AQMQGPYVFIQDSM),0.1991
12,AQMQGPYNFIQDSM(averaged) A1S (SQMQGPYNFIQDSM),0.001176
13,AQMQGPYNFIQDSM(averaged) Q11E (AQMQGPYNFIEDSM),0
14,AQMQGPYNFIQDSM(averaged) A1H (HQMQGPYNFIQDSM),0.006137
15,AQMQGPYNFIQDSM(averaged) N8K (AQMQGPYKFIQDSM),0.007096
16,AQMQGPYNFIQDSM(averaged) D12H (AQMQGPYNFIQHSM),0.1155
17,AQMQGPYNFIQDSM(averaged) D12D,0.268
18,AQMQGPYNFIQDSM(averaged) Y7V (AQMQGPVNFIQDSM),0.02381
19,AQMQGPYNFIQDSM(averaged) Q11W (AQMQGPYNFIWDSM),0.01601
20,AQMQGPYNFIQDSM(averaged) Q4D (AQMDGPYNFIQDSM),0.3261
21,AQMQGPYNFIQDSM(averaged) M14A (AQMQGPYNFIQDSA),0.06493
22,AQMQGPYNFIQDSM(averaged) D12T (AQMQGPYNFIQTSM),0.005851
23,AQMQGPYNFIQDSM(averaged) Y7W (AQMQGPWNFIQDSM),0.03599
24,AQMQGPYNFIQDSM(averaged) D12A (AQMQGPYNFIQASM),0.09226
25,AQMQGPYNFIQDSM(averaged) N8S (AQMQGPYSFIQDSM),0.04423
